Experiments:
DNA = test: Microscale thermophoresis binding, DNA Hairpin
Description: MST fluorescent measurements were performed on a Monolith NT.115 system (NanoTemper Technologies) using the fluorescence of a 5′-Cy5 labeled miR-210 Hairpin RNA (5′—Cy5 […]) (SEQ ID NO: 11), a 5′-Cy5 miR-210 Mutant RNA (5′—Cy5 […]) (SEQ ID NO: 12), or a 5′ Cy5 DNA Hairpin (5′—Cy5 […]) (SEQ ID NO: 13) which were purchased from IDT with RNase-free HPLC purification and used without further purification. The RNA (5 nM) was prepared in 1×MST Buffer (8 mM Na2HPO4, 190 mM NaCl, 1 mM EDTA, and 0.05% (v/v) Tween-20) and folded by heating at 60° C. for 5 min, and slowly cooling to room temperature. Compounds (TGP-210 or TGP-210-RL) were diluted in 1×MST Buffer and then were added to a final concentration of 20 μM, followed by 1:2 dilutions in 1×MST Buffer containing 5 nM RNA. Alternatively, RNase L in 1×MST Buffer was added to a final concentration of 50 nM in addition to compound and RNA. […] Fluorescence measurements (Ex: 605-645 nm, Em: 680-685 nm) were performed at 20% LED and 80% MST power, with a Laser-On time of 30 s and Laser-Off time of 5 s. The data were analyzed by thermophoresis analysis and fitted by the quadratic binding equation in MST analysis software (NanoTemper Technologies). Dissociation constants were then determined by curve fitting using a single-site model.

mature miR-210 = test: Mature miR-210 levels in hypoxic MDA-MB-231 cells by RT-qPCR; assay type: cell-based
Description: (§1) MDA-MB-231 (HTB-26; ATCC) cells were cultured in Roswell Park Memorial Institute (RPM I) 1640 media with L-glutamine & 25 mM HEPES (Corning) supplemented with 10% fetal bovine serum (FBS) (Sigma) and 1×Penicillin Streptomycin Solution (Corning). Cells cultured in normoxia were maintained at 37° C. in ambient atmosphere (˜21% O2) with 5% CO2. Cells cultured in hypoxia were maintained at 37° C., <1% O2 in a nitrogen filled hypoxic chamber (Billups-Rothenberg, Inc.), and 5% CO2. Cells were directly purchased from ATCC, but were not authenticated.
(§2) For compound treatment (TGP-210, TGP-210-RL, LNA-210, Scr-LNA), compound stocks in DMSO or water were diluted in growth medium and added to cells for 24-48 h. […]
(§3) MDA-MB-231 cells were treated in normoxic or hypoxic conditions for 24-48 h, as described above in the Experimental Model and Subject Details section. […] RNA expression levels were determined using the ΔΔCt method and normalized using 18S ribosomal RNA or U6 small nuclear RNA as housekeeping genes. […] Upon treatment with chimeric compound TGP-210-RL, relative cleavage levels were calculated according to equation 1A (Eq. 1A) in order to control for the effect of parent compound TGP-210, on pre-miR-210 expression: […]

pre-miR-210 = pre-miR-210 levels / cleavage in hypoxic MDA-MB-231 cells by RT-qPCR; assay type: cell-based
Description: as §1, §2, §3

Targapremir-210 [TGP-210]
Selectivity window between DNA and the Dicer site in pre-miR-210 (DNA): 5 fold
Kd (DNA; MST): 620 nM
Levels of mature miR-210 (mature miR-210): decreased
Cleavage of pre-miR-210 by TGP-210-RL upon addition of TGP-210 (pre-miR-210; constant TGP-210-RL, increasing amounts of TGP-210): caused a decrease in cleavage of pre-miR-210
pre-miR-210 levels (pre-miR-210; hypoxic MDA-MB-231 cells): increase

From patent publication US20210102200A1, “SMALL MOLECULE TARGETED RECRUITMENT OF A NUCLEASE TO RNA” (The Scripps Research Institute, priority 2018, published 2021)
